Results from patent publication US5770382A, “Tricyclic retinoids, methods for their production and use” (Ligand Pharmaceuticals, Inc., priority 1995, dated 1998).

Experiments:
Assay type in all cases: cell-based
RARγ = target: T1, RARγ (Homo sapiens, UniProt P13631); test: Co-transfection assay, RARγ agonist activity; conditions: CV-1 cells, 40 hours; read-out: RARγ Pot (potency, EC50)
T1 construct: expressed in transfected cells; host or cells: CV-1 (African green monkey kidney fibroblasts)
T1 sequence (P13631 1-454): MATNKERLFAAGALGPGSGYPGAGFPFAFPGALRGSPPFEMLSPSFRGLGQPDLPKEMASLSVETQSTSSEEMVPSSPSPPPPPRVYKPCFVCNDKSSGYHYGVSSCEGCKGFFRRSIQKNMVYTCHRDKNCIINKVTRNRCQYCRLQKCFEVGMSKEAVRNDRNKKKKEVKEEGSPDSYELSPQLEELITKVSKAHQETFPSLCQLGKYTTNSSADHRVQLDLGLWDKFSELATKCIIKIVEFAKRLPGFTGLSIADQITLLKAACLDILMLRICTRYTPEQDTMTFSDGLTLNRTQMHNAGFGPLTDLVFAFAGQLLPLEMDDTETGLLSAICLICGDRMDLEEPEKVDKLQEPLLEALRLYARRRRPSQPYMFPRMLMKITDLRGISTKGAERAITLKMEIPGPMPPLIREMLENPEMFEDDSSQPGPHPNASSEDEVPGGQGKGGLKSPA

RXRβ = target: T2, RXRβ (Mus musculus, UniProt P28704); test: Co-transfection assay, RXRβ agonist activity; conditions: CV-1 cells, 40 hours; read-out: RXRβ Pot (potency, EC50)
T2 construct: expressed in transfected cells; host or cells: CV-1 (African green monkey kidney fibroblasts)
T2 sequence (P28704 1-520): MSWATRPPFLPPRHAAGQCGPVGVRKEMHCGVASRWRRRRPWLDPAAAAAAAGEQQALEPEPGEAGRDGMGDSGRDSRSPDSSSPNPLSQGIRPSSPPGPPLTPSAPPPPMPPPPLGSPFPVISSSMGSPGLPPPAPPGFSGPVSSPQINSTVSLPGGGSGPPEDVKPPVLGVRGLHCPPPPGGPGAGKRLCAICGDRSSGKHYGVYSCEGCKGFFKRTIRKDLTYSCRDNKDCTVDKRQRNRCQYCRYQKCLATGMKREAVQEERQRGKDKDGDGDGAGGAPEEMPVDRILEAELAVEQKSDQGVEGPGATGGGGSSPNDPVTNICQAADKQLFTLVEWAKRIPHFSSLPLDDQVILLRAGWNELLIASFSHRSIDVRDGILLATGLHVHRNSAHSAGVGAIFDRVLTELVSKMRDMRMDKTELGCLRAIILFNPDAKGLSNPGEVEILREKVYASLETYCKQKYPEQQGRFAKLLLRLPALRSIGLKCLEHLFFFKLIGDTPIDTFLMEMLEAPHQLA

RXRγ = target: T3, RXRγ (Mus musculus, UniProt P28705); test: Co-transfection assay, RXRγ agonist activity; conditions: CV-1 cells, 40 hours; read-out: RXRγ Pot (potency, EC50)
T3 construct: expressed in transfected cells; host or cells: CV-1 (African green monkey kidney fibroblasts)
T3 sequence (P28705 1-463): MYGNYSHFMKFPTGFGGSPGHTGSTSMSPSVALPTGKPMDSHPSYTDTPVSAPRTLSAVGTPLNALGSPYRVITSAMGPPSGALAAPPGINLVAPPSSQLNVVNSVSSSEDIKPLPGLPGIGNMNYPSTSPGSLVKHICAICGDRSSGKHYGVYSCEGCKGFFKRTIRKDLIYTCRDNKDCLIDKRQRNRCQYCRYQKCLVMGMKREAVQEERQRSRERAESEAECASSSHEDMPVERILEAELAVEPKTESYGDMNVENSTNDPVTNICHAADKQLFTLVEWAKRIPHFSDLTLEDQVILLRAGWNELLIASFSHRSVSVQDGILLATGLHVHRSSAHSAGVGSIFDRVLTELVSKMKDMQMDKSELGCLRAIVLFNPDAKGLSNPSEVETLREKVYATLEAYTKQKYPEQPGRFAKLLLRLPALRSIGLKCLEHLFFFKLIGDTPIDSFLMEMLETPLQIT

RXRα = target: T4, RXRα (Homo sapiens, UniProt P19793); test: Co-transfection assay, RXRα agonist activity; conditions: CV-1 cells, 40 hours; read-out: RXRα Pot (potency, EC50)
T4 construct: expressed in transfected cells; host or cells: CV-1 (African green monkey kidney fibroblasts)
T4 sequence (P19793 1-462): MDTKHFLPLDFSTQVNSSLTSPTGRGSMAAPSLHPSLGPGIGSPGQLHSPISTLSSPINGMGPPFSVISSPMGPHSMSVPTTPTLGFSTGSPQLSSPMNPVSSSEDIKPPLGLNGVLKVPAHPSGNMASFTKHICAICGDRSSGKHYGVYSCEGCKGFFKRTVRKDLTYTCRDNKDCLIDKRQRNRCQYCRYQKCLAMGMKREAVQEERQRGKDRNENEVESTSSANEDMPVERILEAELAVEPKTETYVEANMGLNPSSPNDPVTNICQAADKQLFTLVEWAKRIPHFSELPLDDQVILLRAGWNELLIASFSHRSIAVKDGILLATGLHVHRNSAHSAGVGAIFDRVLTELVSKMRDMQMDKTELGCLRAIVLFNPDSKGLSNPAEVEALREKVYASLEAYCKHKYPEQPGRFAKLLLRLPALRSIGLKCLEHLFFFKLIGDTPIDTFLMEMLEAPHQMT

RARα = target: T5, RARα (Homo sapiens, UniProt P10276); test: Co-transfection assay, RARα agonist activity; conditions: CV-1 cells, 40 hours; read-out: RARα Pot (potency, EC50)
T5 construct: expressed in transfected cells; host or cells: CV-1 (African green monkey kidney fibroblasts)
T5 sequence (P10276 1-462): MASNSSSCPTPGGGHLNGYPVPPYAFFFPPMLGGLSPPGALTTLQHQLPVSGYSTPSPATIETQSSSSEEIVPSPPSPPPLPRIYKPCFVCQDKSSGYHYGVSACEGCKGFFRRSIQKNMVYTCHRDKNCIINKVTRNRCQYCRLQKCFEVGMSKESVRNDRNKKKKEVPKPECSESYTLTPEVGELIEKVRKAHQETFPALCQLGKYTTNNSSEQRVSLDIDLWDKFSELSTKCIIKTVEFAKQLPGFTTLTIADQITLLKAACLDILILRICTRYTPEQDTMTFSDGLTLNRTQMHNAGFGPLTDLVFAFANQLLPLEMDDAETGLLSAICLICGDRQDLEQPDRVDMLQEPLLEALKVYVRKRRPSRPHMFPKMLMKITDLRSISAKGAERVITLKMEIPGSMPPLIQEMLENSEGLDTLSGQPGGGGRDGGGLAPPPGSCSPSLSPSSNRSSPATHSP

EC50 (RARγ): 83 nM | EC50 (RXRβ): 20 nM | EC50 (RXRγ): 11 nM | EC50 (RXRα): 18 nM | EC50 (RARα): > 10000 nM
SMILES: CC(/C=C/C=C1/CC(C)(C)Oc2cc3c(cc21)C(C)(C)CCC3(C)C)=C\C(=O)O [Compound 104b, (2E,4E)-3-Methyl-6-(2,3,6,7,8,9-hexahydro-2,2,6,6,9,9-hexamethylbenzo[b]-chromen-4-ylidene)-hexa-2,4-dienoic acid]
